In patent US20210308096A1, “COMPOSITION FOR PREVENTING OR TREATING PRURITUS” (INDUSTRIAL COOPERATION FOUNDATION CHONBUK NATIONAL …, priority 2017, published 2021):

What was measured:
Assay type in all cases: in vivo, BALB/c mice
[1] = tested on: histamine-induced pruritus; test: Histamine-induced pruritus, number of scratching actions (MicroAct); conditions: mice; 1 μM and 10 μM injected subcutaneously together with 100 μg histamine; counted for 1 hour; p<0.01 versus histamine-treated group; FIG. 1
Protocol: (§1) Six-week-old, specific-pathogen-free male BALB/c mice were purchased from Orient Bio Korea Inc. (Gapyeong, Gyeonggi-do, Korea) and housed in a laminar flow cabinet. They were provided with standard solid chows ad libitum. At the onset of the test, the mice were 7-8 weeks old. All animal care and use were performed in accordance with the protocol of the Institutional Animal Care and Use Committee of the Chonbuk National University Medical School. Isoflavone-based compounds genistein, daidzein, glycitein and equol were purchased from Sigma. They were dissolved in DMSO and diluted with distilled water. […] Histamine, chloroquine and DNCB were also purchased from Sigma. Pruritus was induced by subcutaneously injecting histamine and chloroquine to the mice. Specifically, 0.1 mL of 2 mg/mL histamine and 4 mg/mL chloroquine were injected respectively. Pruritus was evaluated using MicroAct (Neuroscience, Inc., Tokyo, Japan) according to the method established by the company. The mouse was anesthetized and a magnet piece was inserted into the foot skin of the left hind leg. The mouse was put in a chamber surrounded by a coil and the number of scratching actions was recorded by a computer based on the electrical field generated by the scratching. The experimental conditions of the MicroAct were set as follows. Threshold p-p limit, 0.125 V; threshold minimum duration, 0.2 s; maximum amplitude range, 0.5 V; minimum amplitude range, 0.05 V; maximum frequency, 20 Hz; minimum frequency, 5 Hz. Recording was made only for 3 or more consecutive scratching actions. All the experiments were performed for at least 3 times and 2-3 mice were used per each group. Statistical data were represented by means and standard deviations. Statistical comparison was conducted by one-way ANOVA and the Fisher test. Significant difference between the groups was determined by the unpaired Student's t-test. The significant level of the p-value was less than 0.05. In order to measure the effect of inhibiting histamine-induced pruritus of genistein, daidzein, glycitein and equol, 100 μg of histamine was dissolved in 0.1 mL of physiological saline and injected subcutaneously to induce pruritus. After injecting each of genistein, daidzein, glycitein and equol at 1 μM and 10 μM together with the histamine, the number of scratching actions was counted for 1 hour.

[2] = tested on: SLIGRL-induced pruritus (agonist for the protease activated receptor 2); test: SLIGRL-induced pruritus, number of scratching actions (MicroAct); conditions: mice; 1 μM and 10 μM injected subcutaneously together with 20 μg SLIGRL; counted for 1 hour; p<0.05 versus SLIGRL-treated group; FIG. 4
Protocol: Six-week-old, specific-pathogen-free male BALB/c mice were purchased from Orient Bio Korea Inc. (Gapyeong, Gyeonggi-do, Korea) and housed in a laminar flow cabinet. They were provided with standard solid chows ad libitum. At the onset of the test, the mice were 7-8 weeks old. All animal care and use were performed in accordance with the protocol of the Institutional Animal Care and Use Committee of the Chonbuk National University Medical School. Isoflavone-based compounds genistein, daidzein, glycitein and equol were purchased from Sigma. They were dissolved in DMSO and diluted with distilled water. […] Histamine, chloroquine and DNCB were also purchased from Sigma. Pruritus was induced with SLIGRL. Specifically, 20 μg of SLIGRL was dissolved in 0.1 mL of physiological saline and injected subcutaneously to induce pruritus. Pruritus was evaluated using MicroAct (Neuroscience, Inc., Tokyo, Japan) according to the method established by the company. The mouse was anesthetized and a magnet piece was inserted into the foot skin of the left hind leg. The mouse was put in a chamber surrounded by a coil and the number of scratching actions was recorded by a computer based on the electrical field generated by the scratching. The experimental conditions of the MicroAct were set as follows. Threshold p-p limit, 0.125 V; threshold minimum duration, 0.2 s; maximum amplitude range, 0.5 V; minimum amplitude range, 0.05 V; maximum frequency, 20 Hz; minimum frequency, 5 Hz. Recording was made only for 3 or more consecutive scratching actions. All the experiments were performed for at least 3 times and 2-3 mice were used per each group. Statistical data were represented by means and standard deviations. Statistical comparison was conducted by one-way ANOVA and the Fisher test. Significant difference between the groups was determined by the unpaired Student's t-test. The significant level of the p-value was less than 0.05. In order to measure the effect of inhibiting pruritus induced by SLIGRL, which is an agonist for the protease activated receptor 2, of genistein, daidzein, glycitein and equol, 20 μg of SLIGRL was dissolved in 0.1 mL of physiological saline and injected subcutaneously to induce pruritus. After injecting each of genistein, daidzein, glycitein and equol at 1 μM and 10 μM together with the SLIGRL, the number of scratching actions was counted for 1 hour.

[3] = tested on: TSLP-induced pruritus; test: TSLP-induced pruritus, number of scratching actions (MicroAct); conditions: mice; 1 μM and 10 μM injected subcutaneously together with 0.67 μg TSLP; counted for 1 hour; p<0.05 versus TSLP-treated group; FIG. 5
Protocol: Six-week-old, specific-pathogen-free male BALB/c mice were purchased from Orient Bio Korea Inc. (Gapyeong, Gyeonggi-do, Korea) and housed in a laminar flow cabinet. They were provided with standard solid chows ad libitum. At the onset of the test, the mice were 7-8 weeks old. All animal care and use were performed in accordance with the protocol of the Institutional Animal Care and Use Committee of the Chonbuk National University Medical School. Isoflavone-based compounds genistein, daidzein, glycitein and equol were purchased from Sigma. They were dissolved in DMSO and diluted with distilled water. […] Histamine, chloroquine and DNCB were also purchased from Sigma. Pruritus was induced with TSLP. 0.67 μg of TSLP was dissolved in 0.1 mL of physiological saline and injected subcutaneously to induce pruritus. Pruritus was evaluated using MicroAct (Neuroscience, Inc., Tokyo, Japan) according to the method established by the company. The mouse was anesthetized and a magnet piece was inserted into the foot skin of the left hind leg. The mouse was put in a chamber surrounded by a coil and the number of scratching actions was recorded by a computer based on the electrical field generated by the scratching. The experimental conditions of the MicroAct were set as follows. Threshold p-p limit, 0.125 V; threshold minimum duration, 0.2 s; maximum amplitude range, 0.5 V; minimum amplitude range, 0.05 V; maximum frequency, 20 Hz; minimum frequency, 5 Hz. Recording was made only for 3 or more consecutive scratching actions. All the experiments were performed for at least 3 times and 2-3 mice were used per each group. Statistical data were represented by means and standard deviations. Statistical comparison was conducted by one-way ANOVA and the Fisher test. Significant difference between the groups was determined by the unpaired Student's t-test. The significant level of the p-value was less than 0.05. In order to measure the effect of inhibiting thymic stromal lymphopoietin (TSLP)-induced pruritus of genistein, daidzein, glycitein and equol, 0.67 μg of TSLP solution dissolved in 0.1 mL of physiological saline and injected subcutaneously to induce pruritus. After injecting each of genistein, daidzein, glycitein and equol at 1 μM and 10 μM together with the TSLP, the number of scratching actions was counted for 1 hour.

[4] = tested on: chloroquine-induced pruritus; test: Chloroquine-induced pruritus, number of scratching actions (MicroAct); conditions: mice; 1 μM and 10 μM injected subcutaneously together with 200 μg chloroquine; counted for 1 hour; p<0.01 versus chloroquine-treated group; FIG. 2
Protocol: as §1, with “inhibiting chloroquine-induced” for “inhibiting histamine-induced”, “equol, 200” for “equol, 100”, “of chloroquine” for “of histamine”, “the chloroquine,” for “the histamine,”

[5] = tested on: DNCB-induced pruritus; test: DNCB-induced pruritus, number of scratching actions (MicroAct); conditions: DNCB-sensitized mice; 1 μM or 10 μM applied on the right ear with DNCB; counted for 1 hour; p<0.01 versus DNCB-treated group; FIG. 3
Protocol: Six-week-old, specific-pathogen-free male BALB/c mice were purchased from Orient Bio Korea Inc. (Gapyeong, Gyeonggi-do, Korea) and housed in a laminar flow cabinet. They were provided with standard solid chows ad libitum. At the onset of the test, the mice were 7-8 weeks old. All animal care and use were performed in accordance with the protocol of the Institutional Animal Care and Use Committee of the Chonbuk National University Medical School. Isoflavone-based compounds genistein, daidzein, glycitein and equol were purchased from Sigma. They were dissolved in DMSO and diluted with distilled water. […] Histamine, chloroquine and DNCB were also purchased from Sigma. Pruritus was induced with DNCB. Specifically, after removing hair from the right ear of the mouse, 20 μL of 1% DNCB dissolved in a mixture of olive oil and ethanol (1:4) was applied for sensitization. 10 μL of 0.5% DNCB was applied on the same ear 7 days later (Exp. Dermatol., 2002, 11:285-291). Pruritus was evaluated using MicroAct (Neuroscience, Inc., Tokyo, Japan) according to the method established by the company. The mouse was anesthetized and a magnet piece was inserted into the foot skin of the left hind leg. The mouse was put in a chamber surrounded by a coil and the number of scratching actions was recorded by a computer based on the electrical field generated by the scratching. The experimental conditions of the MicroAct were set as follows. Threshold p-p limit, 0.125 V; threshold minimum duration, 0.2 s; maximum amplitude range, 0.5 V; minimum amplitude range, 0.05 V; maximum frequency, 20 Hz; minimum frequency, 5 Hz. Recording was made only for 3 or more consecutive scratching actions. All the experiments were performed for at least 3 times and 2-3 mice were used per each group. Statistical data were represented by means and standard deviations. Statistical comparison was conducted by one-way ANOVA and the Fisher test. Significant difference between the groups was determined by the unpaired Student's t-test. The significant level of the p-value was less than 0.05. In order to measure the effect of inhibiting DNCB-induced pruritus of genistein, daidzein, glycitein and equol, 20 μL of a 1% DNCB solution was applied on the right ear of the mouse for 7 days for sensitization. 10 μL of 0.5% DNCB was applied on the same ear 7 days later, 1 μM or 10 μM genistein, daidzein, glycitein or equol and 1% DNCB dissolved in physiological saline was applied on the right ear (physiological saline was applied for a negative control group) and the number of scratching actions was counted for 1 hour.

Compound | Effect of inhibiting histamine-induced pruritus (number of scratching actions) [1] | Effect of inhibiting SLIGRL-induced pruritus (number of scratching actions) [2] | Effect of inhibiting TSLP-induced pruritus (number of scratching actions) [3] | Effect of inhibiting chloroquine-induced pruritus (number of scratching actions) [4] | Effect of inhibiting DNCB-induced pruritus (number of scratching actions) [5]
O=c1c(-c2ccc(O)cc2)coc2cc(O)ccc12 [daidzein] | significantly inhibited | significantly inhibited | significantly inhibited | significantly inhibited | significantly inhibited
O=c1c(-c2ccc(O)cc2)coc2cc(O)cc(O)c12 [Genistein, genistein] | significantly inhibited | significantly inhibited | significantly inhibited | significantly inhibited | significantly inhibited
COc1cc2c(=O)c(-c3ccc(O)cc3)coc2cc1O [glycitein] | did not inhibit | did not inhibit | did not inhibit | did not inhibit | did not inhibit
Oc1ccc([C@H]2COc3cc(O)ccc3C2)cc1 [equol] | did not inhibit | did not inhibit | did not inhibit | did not inhibit | did not inhibit
